# Calls of active or inactive are those of the source. The rule behind the calls is not given here.
# Tests used:
# Staphylococcus aureus [1] = assay: Antimicrobial activity against Staphylococcus aureus ATCC 29213 assessed as inhibition of bacterial growth incubated for 16 to 18 hrs by CLSI protocol based Muller Hinton broth assay; type: functional; details: time 16-18 hrs
# Enterococcus faecalis = assay: Antimicrobial activity against Enterococcus faecalis ATCC 29212 assessed as inhibition of bacterial growth incubated for 16 to 18 hrs by CLSI protocol based Muller Hinton broth assay; type: functional; details: time 16-18 hrs
# Escherichia coli [2] = assay: Antimicrobial activity against Escherichia coli ATCC 25922 assessed as inhibition of bacterial growth incubated for 16 to 18 hrs by CLSI protocol based Muller Hinton broth assay; type: functional; details: time 16-18 hrs
# [3] = system: Stenotrophomonas maltophilia; assay: Antimicrobial activity against Stenotrophomonas maltophilia ATCC 17808 assessed as inhibition of bacterial growth incubated for 16 to 18 hrs by CLSI protocol based Muller Hinton broth assay; type: functional; details: time 16-18 hrs
# [4] = Hemolytic activity in defibrinated sheep RBC incubated for 1 hrs; type: toxicity, cell-based, Ovis aries, Erythrocyte; details: defibrinated sheep red blood cells
# [5] = Hemolytic activity in defibrinated sheep RBC assessed as hemolysis rate at 1280 microg/ml incubated for 1 hrs relative to control; type: toxicity, cell-based, Ovis aries, Erythrocyte; details: defibrinated sheep red blood cells, at 1280 µg/mL, read-out: Activity
# Staphylococcus aureus [6] = assay: Antibacterial activity against Staphylococcus aureus assessed as inhibition of bacterial growth incubated for 6 hrs in presence of defibrinated sheep 50% plasma by CLSI protocol based Muller Hinton broth assay; type: functional
# Staphylococcus aureus [7] = assay: Antibacterial activity against Staphylococcus aureus assessed as inhibition of bacterial growth incubated for 6 hrs in presence of 50% fetal bovine plasma by CLSI protocol based Muller Hinton broth assay; type: functional
# Staphylococcus aureus [8] = assay: Antibacterial activity against Staphylococcus aureus assessed as inhibition of bacterial growth by measuring fold change in MIC incubated for 6 hrs in presence of defibrinated sheep 50% plasma by CLSI protocol based Muller Hinton broth assay; type: functional
# Staphylococcus aureus [9] = assay: Antibacterial activity against Staphylococcus aureus assessed as inhibition of bacterial growth by measuring fold change in MIC incubated for 6 hrs in presence of 50% fetal bovine plasma by CLSI protocol based Muller Hinton broth assay; type: functional
# Staphylococcus aureus [10] = assay: Antibacterial activity against Staphylococcus aureus assessed as inhibition of bacterial growth by measuring fold change in MIC incubated for 6 hrs in presence of 50% fetal bovine serum by CLSI protocol based Muller Hinton broth assay; type: functional
# Staphylococcus aureus [11] = assay: Antibacterial activity against Staphylococcus aureus assessed as reduction in bacterial colony incubated upto 24 hrs by time-kill kinetics assay; type: functional
# Staphylococcus aureus [12] = assay: Antibacterial activity against Staphylococcus aureus assessed as reduction in bacterial colony at 8 times of MIC incubated for 1 hrs by time-kill kinetics assay; type: functional, organism-based
# Escherichia coli [13] = assay: Antibacterial activity against Escherichia coli assessed as reduction in bacterial colony at 2 times of MIC incubated for 2 to 24 hrs by time kill kinetics assay; type: functional, organism-based; details: time 2-24 hrs
# Staphylococcus aureus [14] = assay: Antimicrobial activity against Staphylococcus aureus ATCC 29213 incubated for 16 to 18 hrs and measured before 9th passage by CLSI protocol based Muller Hinton broth assay; type: functional, organism-based
# Staphylococcus aureus [15] = assay: Drug resistance, ratio of MIC for Staphylococcus aureus ATCC 29213 incubated for 16 to 18 hrs and measured after 16 passages to MIC for Staphylococcus aureus ATCC 29213 incubated for 16 to 18 hrs; type: functional
# Escherichia coli [16] = assay: Antibacterial activity against Escherichia coli ATCC 25922 incubated for 16 to 18 hrs and measured before 7th passage by CLSI protocol based Muller Hinton broth assay; type: functional, organism-based
# Escherichia coli [17] = assay: Drug resistance, ratio of MIC for Escherichia coli ATCC 25922 incubated for 16 to 18 hrs and measured after 25 passage to MIC for Escherichia coli ATCC 25922 incubated for 16 to 18 hrs; type: functional
# Staphylococcus aureus [18] = assay: Antibacterial activity against persistent Staphylococcus aureus assessed as reduction in bacterial colony at 16 times of MIC measured for 24 hrs by CLSI protocol based Muller Hinton broth assay; type: functional, organism-based
# Staphylococcus aureus [19] = assay: Anti-biofilm activity against Staphylococcus aureus assessed as reduction in bacterial density at 16 times of MIC incubated for 24 hrs by confocal laser scanning microscopic analysis; type: functional, organism-based
# Staphylococcus aureus [20] = assay: Anti-biofilm activity against Staphylococcus aureus assessed as reduction in extended colonies in biofilm at 16 times of MIC incubated for 24 hrs by confocal laser scanning microscopic analysis; type: functional, organism-based
# Staphylococcus aureus [21] = assay: Anti-biofilm activity against Staphylococcus aureus assessed as reduction in bacteria in biofilm at 32 times of MIC incubated for 24 hrs by confocal laser scanning microscopic analysis; type: functional, organism-based
# Staphylococcus aureus [22] = assay: Anti-biofilm activity against Staphylococcus aureus assessed as punctate distribution of bacteria in biofilm at 32 times of MIC incubated for 24 hrs by confocal laser scanning microscopic analysis; type: functional, organism-based
# Cell membrane [23] = assay: Induction of Cytoplasmic membrane depolarization in Staphylococcus aureus at 8 to 16 microg/ml incubated for 15 mins by fluorescence microplate reader; type: cell membranes; details: dose 8-16 µg/ml
# Cell membrane [24] = assay: Induction of inner membrane permeabilization in Staphylococcus aureus assessed as fluorescence intensity at 16 microg/ml incubated for 15 mins by PI staining based microplate reader; type: cell membranes; details: dose 16.0 µg/ml
# Staphylococcus aureus [25] = assay: Induction of morphological changes in Staphylococcus aureus assessed as disintegrated membrane blocks at 8 times of MIC incubated for 4 hrs by scanning electron microscopic analysis; type: functional, organism-based
# Staphylococcus aureus [26] = assay: Induction of morphological changes in Staphylococcus aureus assessed as appearance of aggregated membrane sheets at 8 times of MIC incubated for 4 hrs by scanning electron microscopic analysis; type: functional, organism-based
# Staphylococcus aureus [27] = assay: Induction of morphological changes in Staphylococcus aureus assessed as irregular spherical appearance at 8 times of MIC incubated for 4 hrs by scanning electron microscopic analysis; type: functional, organism-based
# Escherichia coli [28] = assay: Induction of morphological changes in Escherichia coli assessed as outer membrane damage at 8 times of MIC incubated for 4 hrs by scanning electron microscopic analysis; type: functional, organism-based
# Escherichia coli [29] = assay: Induction of morphological changes in Escherichia coli assessed as disintegration of rod shaped cells at 8 times of MIC incubated for 4 hrs by scanning electron microscopic analysis; type: functional, organism-based
# Escherichia coli [30] = assay: Induction of morphological changes in Escherichia coli assessed as shattering of rod shaped cells at 8 times of MIC incubated for 4 hrs by scanning electron microscopic analysis; type: functional, organism-based
# Cell membrane [31] = assay: Induction of cell membrane damage in Staphylococcus aureus assessed as nucleic acid leakage at 4 times of MIC incubated for 2 hrs by n ultra-micro-volume spectrophotometric analysis; type: cell membranes
# Cell membrane [32] = assay: Induction of cell membrane damage in Escherichia coli assessed as nucleic acid leakage at 4 times of MIC incubated for 2 hrs by n ultra-micro-volume spectrophotometric analysis; type: cell membranes
# [33] = Cytotoxicity against rat HBZY-1 cells assessed as cell survival rate at 64 microg/ml incubated for 48 hrs by CCK8 assay relative to control; type: toxicity, cell-based; details: at 64 µg/mL, read-out: Activity
# [34] = Cytotoxicity against human SW620 cells assessed as cell survival rate at 64 microg/ml incubated for 48 hrs by CCK8 assay relative to control; type: toxicity, cell-based, SW-620; details: at 64 µg/mL, read-out: Activity
# Staphylococcus aureus [35] = assay: Drug resistance, ratio of MIC for Staphylococcus aureus ATCC 29213 incubated for 16 to 18 hrs and measured after 2 passages to MIC for Staphylococcus aureus ATCC 29213 incubated for 16 to 18 hrs; type: functional
# Staphylococcus aureus [36] = assay: Antibacterial activity against methicillin resistant Staphylococcus aureus; type: functional
# Staphylococcus aureus [37] = assay: Antibacterial activity against Staphylococcus aureus assessed as inhibition of bacterial growth incubated for 16 to 20 hrs by CLSI protocol based broth microdilution method; type: functional; details: time 16-20 hrs
# [38] = Hemolytic activity in sheep RBC assessed as hemolysis incubated for 1 hrs by absorbance based assay; type: toxicity, cell-based, Ovis aries, Erythrocyte; details: sheep red blood cells
# Staphylococcus aureus [39] = assay: Antibacterial activity against methicilin-resistant Staphylococcus aureus assessed as inhibition of bacterial growth incubated for 24 hrs by broth microdilution method; type: functional
# Staphylococcus aureus [40] = assay: Antibacterial activity against vancomycin intermediate Staphylococcus aureus assessed as inhibition of bacterial growth incubated for 24 hrs by broth microdilution method; type: functional
# Staphylococcus aureus [41] = assay: Antibacterial activity against Staphylococcus aureus assessed as reduction in bacterial colony at 8 times of MIC incubated for 8 hrs by time-kill kinetics assay; type: functional, organism-based
# Cell membrane [42] = assay: Induction of Cytoplasmic membrane depolarization in Staphylococcus aureus at 16 microg/ml incubated for 15 mins by DiSC3(5) dye based fluorescence microplate reader; type: cell membranes; details: dose 16.0 µg/ml
# Cell membrane [43] = assay: Induction of inner membrane permeabilization in Staphylococcus aureus assessed as increase in fluorescence intensity at 16 microg/ml incubated for 15 mins by PI staining based microplate reader; type: cell membranes; details: dose 16.0 µg/ml
smiles,measurement,setting,value
CCCCCCCCNC(=O)C[n+]1ccc(C(=O)N2CCN(c3cc4c(cc3F)c(=O)c(C(=O)O)cn4C3CC3)CC2)cc1.[Br-],MIC,Staphylococcus aureus [1],2 µg/mL
same,MIC,Enterococcus faecalis,2 µg/mL
same,MIC,Escherichia coli [2],2 µg/mL
same,MIC,[3],8 µg/mL
same,HC50 at 1 h,[4],> 1280 µg/mL
same,"hemolysis at 1 h, 1280 microg/ml",[5],5.1%
same,MIC,Staphylococcus aureus [6],4 µg/mL
same,MIC,Staphylococcus aureus [7],4 µg/mL
same,fold change (FC),Staphylococcus aureus [8],2
same,fold change (FC),Staphylococcus aureus [9],2
same,fold change (FC),Staphylococcus aureus [10],2
same,MIC,Staphylococcus aureus [11],2 µg/mL
same,Activity,Staphylococcus aureus [12],Active
same,Activity,Escherichia coli [13],Active
same,Activity,Staphylococcus aureus [14],Active
same,Ratio,Staphylococcus aureus [15],4
same,Activity,Escherichia coli [16],Active
same,Ratio,Escherichia coli [17],2
same,Activity,Staphylococcus aureus [18],Active
same,Activity,Staphylococcus aureus [19],Active
same,Activity,Staphylococcus aureus [20],Active
same,Activity,Staphylococcus aureus [21],Active
same,Activity,Staphylococcus aureus [22],Active
same,Activity,Cell membrane [23],Active
same,Flu intensity,Cell membrane [24],300
same,Activity,Staphylococcus aureus [25],Active
same,Activity,Staphylococcus aureus [26],Active
same,Activity,Staphylococcus aureus [27],Active
same,Activity,Escherichia coli [28],Active
same,Activity,Escherichia coli [29],Active
same,Activity,Escherichia coli [30],Active
same,Activity,Cell membrane [31],Active
same,Activity,Cell membrane [32],Active
same,"viability at 48 h, 64 microg/ml",[33],96.9%
same,"viability at 48 h, 64 microg/ml",[34],68.2%
CCn1cc(C(=O)O)c(=O)c2cc(F)c(N3CCNCC3)cc21 [NORFLOXACIN],Ratio,Staphylococcus aureus [35],2
same,Ratio,Staphylococcus aureus [15],64
COc1c2c(cc(F)c1N1CCN(CC(=O)Nc3ncc([N+](=O)[O-])s3)CC1)C(=O)C(C(=O)O)=CC2C1CC1 (stereo unspecified),MIC,Staphylococcus aureus [36],0.01 µg/mL
CCCCCCCNC(=O)C[N+](C)(C)CCCOc1ccc(OCCC[N+](C)(C)CC(=O)NCCCCCCC)cc1.[Br-].[Br-],MIC,Staphylococcus aureus [37],0.5 µg/mL
same,HC50 at 1 h,[38],1220 µg/mL
CCCCCCCC[n+]1ccc(CN[C@@]2(C)C[C@H](O[C@H]3[C@H](Oc4c5cc6cc4Oc4ccc(cc4Cl)[C@@H](O)[C@@H](NC(=O)[C@@H](CC(C)C)NC)C(=O)N[C@@H](CC(N)=O)C(=O)N[C@H]6C(=O)N[C@H]4C(=O)N[C@H](C(=O)N[C@@H](C(=O)O)c6cc(O)cc(O)c6-c6cc4ccc6O)[C@H](O)c4ccc(c(Cl)c4)O5)O[C@H](CO)[C@@H](O)[C@@H]3O)O[C@@H](C)[C@H]2O)cc1,MIC,Staphylococcus aureus [39],0.1 µM
same,MIC,Staphylococcus aureus [40],0.11 µM
CN[C@H](CC(C)C)C(=O)N[C@H]1C(=O)N[C@@H](CC(N)=O)C(=O)N[C@H]2C(=O)N[C@H]3C(=O)N[C@H](C(=O)N[C@H](C(=O)O)c4cc(O)cc(O)c4-c4cc3ccc4O)[C@H](O)c3ccc(c(Cl)c3)Oc3cc2cc(c3O[C@@H]2O[C@H](CO)[C@@H](O)[C@H](O)[C@H]2O[C@H]2C[C@](C)(N)[C@H](O)[C@H](C)O2)Oc2ccc(cc2Cl)[C@H]1O [VANCOMYCIN],MIC,Enterococcus faecalis,2 µg/mL
same,Activity,Staphylococcus aureus [41],Active
O=C(O)c1cn(C2CC2)c2cc(N3CCNCC3)c(F)cc2c1=O,Activity,Cell membrane [42],inactive
same,Activity,Cell membrane [43],inactive
